The values that follow come from patent US8507470B2, “Substituted arylamide oxazepinopyrimidone derivatives” (Sanofi, priority 2008, dated 2013).

One data set has as its target GSK3β (Homo sapiens, UniProt P49841). The data set can be described thus: Inhibitory activity against GSK3β (33P-ATP phosphorylation of prephosphorylated GS1 peptide). It counts as biochemical. To be noted: protocol 4: commercial GSK3beta (Millipore), 7.5 μM GS1 peptide, 10 μM ATP, 90 minutes at room temperature. As to the method:
Test Example: Inhibitory Activity of the Medicament of the Present Invention against GSK3β: Four different protocols can be used. In a first protocol: 7.5 μM of prephosphorylated GS1 peptide and 10 μM ATP (containing 300,000 cpm of ^33P-ATP) were incubated in 25 mM Tris-HCl, pH 7.5, 0.6 mM DTT, 6 mM MgCl2, 0.6 mM EGTA, 0.05 mg/ml BSA buffer for 1 hour at room temperature in the presence of GSK3beta (total reaction volume: 100 microliters). In a second protocol: 4.1 μM of prephosphorylated GS1 peptide and 42 μM ATP (containing 260,000 cpm ^33P-ATP) were incubated in 80 mM Mes-NaOH, pH 6.5, 1 mM Mg acetate, 0.5 mM EGTA, 5 mM 2-mercaptoethanol, 0.02% Tween 20, 10% glycerol buffer for 2 hours at room temperature in the presence of GSK3beta. In a third protocol: 7.5 μM of prephosphorylated GS1 peptide and 10 μM ATP (containing 300,000 cpm of ^33P-ATP) were incubated in 50 mM Hepes, pH 7.2, 1 mM DTT, 1 mM MgCl2, 1 mM EGTA, 0.01% Tween 20 buffer for one hour at room temperature in the presence of GSK3beta (total reaction volume: 100 microliters). In a fourth protocol: 7.5 μM of prephosphorylated GS1 peptide and 10 μM ATP (containing 300,000 cpm of ^33P-ATP) were incubated in 50 mM Hepes, pH 7.2, 1 mM DTT, 1 mM MgCl2, 1 mM EGTA, 0.01% Tween 20 buffer for 90 minutes at room temperature in the presence of commercial GSK3beta (Millipore) (total reaction volume: 100 microliters). Inhibitors were solubilised in DMSO (final solvent concentration in the reaction medium, 1%). The reaction was stopped with 100 microliters of a solution made of 25 g polyphosphoric acid (85% P2O5), 126 ml 85% H3PO4, H2O to 500 ml and then diluted to 1:100 before use. An aliquot of the reaction mixture was then transferred to Whatman P81 cation exchange filters and rinsed with the solution described above. Incorporated ^33P radioactivity was determined by liquid scintillation spectrometry. The phosphorylated GS-1 peptide had the following sequence: NH2-[…](P)EDEE-COOH.(Woodgett, J. R. (1989) Analytical Biochemistry 180, 237-241.

Structures can show the parent of a compound that is named as a salt.

Chain of GSK3β (P49841 whole entry): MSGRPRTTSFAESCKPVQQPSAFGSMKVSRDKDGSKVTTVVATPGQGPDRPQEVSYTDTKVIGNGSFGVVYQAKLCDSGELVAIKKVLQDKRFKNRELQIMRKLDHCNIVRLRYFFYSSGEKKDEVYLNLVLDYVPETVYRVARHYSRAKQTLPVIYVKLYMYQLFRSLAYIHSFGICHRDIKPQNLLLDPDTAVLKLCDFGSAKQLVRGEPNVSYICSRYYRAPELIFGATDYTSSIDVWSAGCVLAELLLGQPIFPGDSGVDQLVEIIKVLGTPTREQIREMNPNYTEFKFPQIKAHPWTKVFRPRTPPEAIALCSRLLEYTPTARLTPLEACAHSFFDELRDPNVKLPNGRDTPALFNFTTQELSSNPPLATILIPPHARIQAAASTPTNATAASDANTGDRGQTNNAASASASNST

Usually melting point stands for the temperature, or range, at which the solid turns liquid. The compound `COc1ccccc1CNC1COCCn2c1nc(-c1ccncn1)cc2=O` (racemic) (as salt: HCl) [compound No. 21, (+/−)-9-(2-Methoxy-benzylamino)-2-pyrimidin-4-yl-5,6,8,9-tetrahydro-7-oxa-1,4a-diaza-benzocyclohepten-4-one] showed a melting point of 254 to 256 °C.

Broadly, the IC50 is the concentration that inhibits the measured activity by half. Read a low IC50 as higher potency. `COc1ccc(S(N)(=O)=O)cc1C(=O)NC1COCCn2c1nc(-c1ccncn1)cc2=O` (racemic) [compound No. 7, (+/−)-2-Methoxy-N-(4-oxo-2-pyrimidin-4-yl-5,6,8,9-tetrahydro-4H-7-oxa-1,4a-diaza-benzocyclohepten-9-yl)-5-sulfamoyl-benzamide] registered a melting point of 257 to 259 °C. Further, the half-inhibitory concentration (IC50) on GSK3β stood at 0.5 nM.

The compound `CC(=O)Oc1ccccc1C(=O)NC1COCCn2c1nc(-c1ccncn1)cc2=O` (racemic) [compound No. 14, (+/−)-Acetic acid 2-(4-oxo-2-pyrimidin-4-yl-5,6,8,9-tetrahydro-4H-7-oxa-1,4a-diaza-benzocyclohepten-9-ylcarbamoyl)-phenyl ester] came in with a melting point of 202 to 204 °C. For the same compound, on GSK3β, inhibition was half-maximal at 10 nM (IC50).

Regarding `COc1ccc(Cl)cc1C(=O)NC1COCCn2c1nc(-c1ccncc1)cc2=O` (racemic) [compound No. 19, (+/−)-5-Chloro-2-methoxy-N-(4-oxo-2-pyridin-4-yl-5,6,8,9-tetrahydro-4H-7-oxa-1,4a-diaza-benzocyclohepten-9-yl)-benzamide], the melting point lay in the range of 235 to 237 °C. Also, at GSK3β, the IC50 stood at 2 nM.

Turning to `COc1ccccc1CNC1COCCn2c1nc(-c1ccncn1)cc2=O` (racemic) [compound No. 21, (+/−)-9-(2-Methoxy-benzylamino)-2-pyrimidin-4-yl-5,6,8,9-tetrahydro-7-oxa-1,4a-diaza-benzocyclohepten-4-one], the half-maximal inhibitory concentration (IC50) at GSK3β amounted to 41 nM.
